Measurements: patent US9394285B2 (Pfizer Inc., priority 2013, dated 2016)

Target: human AMPK (full-length γ1, β1 and α1 subunits) (Homo sapiens (Human), UniProt Q13131+Q9Y478)
Assay: AMPK in vitro biochemical assay (33P-based, SAMS peptide, PP2A dephosphorylation)
Conditions: for EC50: activation of phosphorylated AMPK, 33P-ATP, SAMS peptide, PP2A treatment, 4-parameter fit; for Emax / Maximum: counts as % of positive control wells (enzyme, allosteric activator or AMP, PP2A and substrate); for Emax: read-out: Maximum
Source text: We designed a tricistronic AMPK expression construct that included open reading frames encoding the full-length γ1, β1 and α1 subunits of human AMPK with a ribosome-binding site (RBS) ahead of each coding region and subcloned this into pET-14b expression vector (Novagen, Madison, Wis.) using standard molecular biology techniques. AMPK tricistronic construct was transformed into E. coli BL21-CodonPlus™ (DE3)-RIPL strain (Stratagene) and transformants were selected on LB (Luria-Bertani) agar plates containing ampicillin (100 μg/ml). […] Optical density sample measurements were made on an UltroSpec 2000 spectrophotometer (Pharmacia Biotech) at 600 nm. When the cell density reached ˜0.9 OD, the temperature was reduced to 18° C. and the culture was induced at 18° C. with 0.1 mM Isopropylthiogalactoside (IPTG). […] The cell pellets were aliquoted into four portions, flash frozen in liquid nitrogen and were stored at −80° C. until purification. For purification, frozen cell paste was thawed and resuspended in 50 ml lysis buffer (50 mM Tris, pH 8.0, 150 mM NaCl, 10% glycerol, 2 mM Tris-2-carboxyethyl phosphine (TCEP), 20 mM imidazole and 0.001% Triton X-100). After sonication, insoluble material was removed by centrifugation at 15,000 rpm in a Sorvall® RC5 plus centrifuge for 30 min at 4° C. and the supernatant was loaded onto a 5 ml HisTrap™ HP column (GE Healthcare, Piscataway, N.J.) and washed with five column volumes of lysis buffer. Bound proteins were eluted using an elution buffer containing 300 mM imidazole. Fractions containing AMPK subunits were pooled based on SDS-10% PAGE analysis and dialyzed overnight in dialysis buffer (50 mM Tris, pH 8.0, 150 mM NaCl, 10% glycerol, 2 mM TCEP, and 0.001% Triton X-100). […] The phosphorylated AMPK complex was re-purified on HisTrap™ HP column as before, dialyzed over night in dialysis buffer. The phosphorylated AMPK complex was further purified by gel filtration chromatography with a Superdex 200 HiLoad 16/60 column (GE Healthcare) in SEC buffer (50 mM Tris, pH 8.0, 150 mM NaCl, 10% glycerol, 2 mM TCEP, and 0.001% Triton X-100).
The harvest time (72 hours post infection) was indicated by percent cell viability (to 85-90%) and increased cell diameter (3-4 μm). […] For purification, the cell paste was resuspended in 500 mL lysis buffer (50 mM Tris pH 8.0, 150 mM NaCl, 25 mM imidazole, 10% glycerol, 2 mM MgCl2, 2 mM TCEP+protease inhibitor cocktail. After lysis, cellular debris was removed by centrifugation at 36K×g for 1 hour. The resulting supernatant was filtered at 0.2 micron before applying to a 1 mL nickel charged IMAC column (HisTrap, GE). The bound resin was washed to baseline with 50 CV of 50 mM Tris pH 8.0, 150 mM NaCl, 25 mM imidazole, 10% glycerol, 2 mM MgCl2, 2 mM TCEP before eluting over a 20 CV gradient to 100% with wash buffer containing 500 mM imidazole. Pooled fractions containing PP2A were combined and diluted 10× with 50 mM Tris pH 8.0, 10% glycerol, 1 mM TCEP and applied to a 1 mL AIEX resin (HiTrap QFF, GE). The bound resin was washed with dilution buffer and PP2A was eluted over a 20 CV gradient to 100% 50 mM Tris pH 8.0, 500 mM NaCl, 10% glycerol, 1 mM TCEP and was further diluted 1:1 with 50 mM Tris pH 8.0, 150 mM NaCl, 10% glycerol, and 1 mM TCEP buffer.
The biochemical EC50 (half-maximal concentration required for full activation) of compounds for the activation of AMPK was evaluated by ^33P-based assay using SAMS peptide (commercially available) derived from ACC-1. Twenty μl of phosphorylated AMPK diluted in assay buffer, (50 mM HEPES, 1 mM EGTA, 10 mM MgCl2, 0.25 mM DTT, 0.01% Tween-20, 0.01% BSA (pH 7.5)) was added to 384 well plates containing 1 μL of test compound. Following a fifteen minute room temperature incubation, 10 μL of protein phosphatase PP2A was added to the plate to dephosphorylate pThr172 of AMPK. […] The reaction was terminated after 60 minutes incubation at room temperature by the addition of 15 μL of 2% H3PO4.

Sequence of human AMPK (full-length γ1, β1 and α1 subunits) (Q13131 whole entry): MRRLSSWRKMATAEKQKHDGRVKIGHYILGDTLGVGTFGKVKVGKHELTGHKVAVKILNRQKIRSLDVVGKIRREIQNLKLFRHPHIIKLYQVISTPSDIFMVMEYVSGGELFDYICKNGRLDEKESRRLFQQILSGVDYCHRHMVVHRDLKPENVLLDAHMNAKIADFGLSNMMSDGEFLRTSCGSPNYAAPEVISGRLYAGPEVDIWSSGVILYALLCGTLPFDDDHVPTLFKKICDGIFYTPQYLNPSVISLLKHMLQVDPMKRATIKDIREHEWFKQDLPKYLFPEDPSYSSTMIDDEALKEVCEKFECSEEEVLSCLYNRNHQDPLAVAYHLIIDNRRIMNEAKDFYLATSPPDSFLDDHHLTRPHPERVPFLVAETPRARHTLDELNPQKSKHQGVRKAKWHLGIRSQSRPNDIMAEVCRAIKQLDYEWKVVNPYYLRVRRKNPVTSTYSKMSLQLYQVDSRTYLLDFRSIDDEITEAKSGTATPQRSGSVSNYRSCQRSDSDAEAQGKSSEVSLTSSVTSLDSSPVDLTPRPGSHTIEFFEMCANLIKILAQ
Sequence of human AMPK (full-length γ1, β1 and α1 subunits) (Q9Y478 whole entry): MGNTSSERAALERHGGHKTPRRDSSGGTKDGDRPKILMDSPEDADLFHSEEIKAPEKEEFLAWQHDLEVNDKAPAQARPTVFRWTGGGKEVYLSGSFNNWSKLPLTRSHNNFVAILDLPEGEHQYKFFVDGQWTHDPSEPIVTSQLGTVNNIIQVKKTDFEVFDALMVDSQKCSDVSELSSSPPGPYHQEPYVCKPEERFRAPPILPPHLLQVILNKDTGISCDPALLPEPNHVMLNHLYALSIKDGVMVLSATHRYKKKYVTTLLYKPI
Sequence of human AMPK (full-length γ1, β1 and α1 subunits) (P54619 whole entry partner): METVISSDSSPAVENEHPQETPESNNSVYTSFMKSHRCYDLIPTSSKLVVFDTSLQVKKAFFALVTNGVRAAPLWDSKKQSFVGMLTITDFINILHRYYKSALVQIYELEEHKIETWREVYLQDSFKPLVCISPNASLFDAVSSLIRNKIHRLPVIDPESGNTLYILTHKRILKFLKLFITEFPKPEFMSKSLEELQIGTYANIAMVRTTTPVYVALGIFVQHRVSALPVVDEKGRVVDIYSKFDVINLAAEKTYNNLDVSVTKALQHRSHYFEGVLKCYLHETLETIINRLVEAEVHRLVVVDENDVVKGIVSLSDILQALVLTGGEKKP

Structure (SMILES) | EC50 [nM] | Emax [%] | Maximum [%]
COC(=O)N1CCC(c2ccc(-c3cc4c(C(=O)O)c[nH]c4cc3Cl)cc2)C1 (racemic) [Example 14, 6-chloro-5-{4-[1-(methoxycarbonyl)pyrrolidin-3-yl]phenyl}-1H-indole-3-carboxylic acid] | 151 | 100 | –
O=C(O)c1c[nH]c2cc(Cl)c(-c3ccc(O[C@@H]4CCC[C@H]4O)cc3)cc12 (racemic) [Example 38, (±)-6-chloro-5-(4-{[trans-2-hydroxycyclopentyl]oxy}phenyl)-1H-indole-3-carboxylic acid] | 106 | 93 | –
O=C(O)c1n[nH]c2cc(Cl)c(-c3ccc(C4CCOC4)cc3)cc12 (racemic) [Example 124, (±)-6-Chloro-5-(4-(tetrahydrofuran-3-yl)phenyl)-1H-indazole-3-carboxylic acid] | 93.8 | 93 | –
COC(=O)N1CCC(c2ccc(-c3cc4c(C(=O)O)c[nH]c4cc3Cl)cc2)C1 (single isomer, unassigned) [Example 14A, 6-chloro-5-{4-[1-(methoxycarbonyl)pyrrolidin-3-yl]phenyl}-1H-indole-3-carboxylic acid] | 101 | 101 | –
COC(=O)N1CCC(c2ccc(-c3cc4c(C(=O)O)c[nH]c4cc3Cl)cc2)C1 (single isomer, unassigned) [Example 14B, 6-chloro-5-{4-[1-(methoxycarbonyl)pyrrolidin-3-yl]phenyl}-1H-indole-3-carboxylic acid] | 118 | – | 91
O=C(O)c1c[nH]c2cc(F)c(-c3ccc(C4CCCO4)cc3)cc12 (single isomer, unassigned) [Example 150, 6-fluoro-5-[4-(tetrahydrofuran-2-yl)phenyl]-1H-indole-3-carboxylic acid] | 165 | 112 | –
O=C(O)c1c[nH]c2cc(F)c(-c3ccc(C4CCCO4)cc3)cc12 (single isomer, unassigned) [Example 151, 6-fluoro-5-[4-(tetrahydrofuran-2-yl)phenyl]-1H-indole-3-carboxylic acid] | 37.8 | – | 103.8
O=C(O)c1c[nH]c2cc(F)c(-c3ccc(C4CCCO4)cc3)c(F)c12 (single isomer, unassigned) [Example 152, 4,6-difluoro-5-[4-(tetrahydrofuran-2-yl)phenyl]-1H-indole-3-carboxylic acid] | 16.7 | – | –
O=C(O)c1c[nH]c2cc(F)c(-c3ccc(C4CCCO4)cc3)c(F)c12 (single isomer, unassigned) [Example 153, 4,6-difluoro-5-[4-(tetrahydrofuran-2-yl)phenyl]-1H-indole-3-carboxylic acid] | 137 | – | –
O=C(O)c1c[nH]c2cc(Cl)c(-c3ccc(C4CCCO4)cc3)cc12 (single isomer, unassigned) [Example 154, 6-chloro-5-[4-(tetrahydrofuran-2-yl)phenyl]-1H-indole-3-carboxylic acid] | 28.3 | – | 104.8
O=C(O)c1c[nH]c2cc(Cl)c(-c3ccc(C4CCCO4)cc3)cc12 (single isomer, unassigned) [Example 155, 6-chloro-5-[4-(tetrahydrofuran-2-yl)phenyl]-1H-indole-3-carboxylic acid] | 47.8 | – | 126.9
O=C(O)c1c[nH]c2cc(F)c(-c3ccc(C4CCCCO4)cc3)cc12 (single isomer, unassigned) [Example 171, 6-fluoro-5-[4-(tetrahydro-2H-pyran-2-yl)phenyl]-1H-indole-3-carboxylic acid] | 32.9 | – | 69.2
O=C(O)c1c[nH]c2cc(F)c(-c3ccc(C4CCCCO4)cc3)cc12 (single isomer, unassigned) [Example 172, 6-fluoro-5-[4-(tetrahydro-2H-pyran-2-yl)phenyl]-1H-indole-3-carboxylic acid] | 11 | – | 101.1
COc1nc(N2CCC(OC)C2)ccc1-c1cc2c(C(=O)O)c[nH]c2cc1Cl (stereo in doubt) [Example 175, 6-chloro-5-{2-methoxy-6-[(3R)-3-methoxypyrrolidin-1-yl]pyridin-3-yl}-1H-indole-3-carboxylic acid] | 22.6 | 78.2 | –
COc1nc(N2CCC(OC)C2)ccc1-c1cc2c(C(=O)O)c[nH]c2cc1Cl (stereo in doubt) [Example 176, 6-chloro-5-{2-methoxy-6-[(3S)-3-methoxypyrrolidin-1-yl]pyridin-3-yl}-1H-indole-3-carboxylic acid] | 5.6 | 62.4 | –
O=C(O)c1c[nH]c2cc(Cl)c(-c3ccc(CO)cc3)cc12 [Example 2, 6-Chloro-5-[4-(hydroxymethyl)phenyl]-1H-indole-3-carboxylic acid] | 64.7 | 88 | –
O=C(O)c1c[nH]c2cc(Cl)c(-c3ccccc3)cc12 [Example 3, 6-Chloro-5-phenyl-1H-indole-3-carboxylic acid] | 459 | 82 | –
O=C(O)c1c[nH]c2cc(Cl)c(-c3ccc(C4(O)COC4)cc3)cc12 [Example 5, 6-Chloro-5-(4-(3-hydroxyoxetan-3-yl)phenyl)-1H-indole-3-carboxylic acid] | 35.7 | 78 | –
O=C(O)c1c[nH]c2cc(F)c(-c3ccc(CO)cc3)cc12 [Example 7, 6-fluoro-5-[4-(hydroxymethyl)phenyl]-1H-indole-3-carboxylic acid] | 671 | 78 | –
CC(=O)N1CC(Oc2ccc(-c3cc4c(C(=O)O)c[nH]c4cc3Cl)cc2)C1 [Example 8, 5-{4-[(1-acetylazetidin-3-yl)oxy]phenyl}-6-chloro-1H-indole-3-carboxylic acid] | 220 | 94 | –
CC(=O)N1CC(COc2ccc(-c3cc4c(C(=O)O)c[nH]c4cc3Cl)cc2)C1 [Example 9, 5-{4-[(1-acetylazetidin-3-yl)methoxy]phenyl}-6-chloro-1H-indole-3-carboxylic acid] | 71.2 | 81 | –
CC(=O)NCCOc1ccc(-c2cc3c(C(=O)O)c[nH]c3cc2Cl)cc1 [Example 10, 5-{4-[2-(acetylamino)ethoxy]phenyl}-6-chloro-1H-indole-3-carboxylicacid] | 69.9 | 91 | –
O=C(O)c1c[nH]c2cc(Cl)c(-c3ccc(CC(=O)N4CCC4)cc3)cc12 [Example 11, 5-{4-[2-(azetidin-1-yl)-2-oxoethyl]phenyl}-6-chloro-1H-indole-3-carboxylic acid] | 554 | 73 | –
O=C(O)c1c[nH]c2cc(Cl)c(-c3ccc(C4(O)CCC4)cc3F)cc12 [Example 13, 6-chloro-5-[2-fluoro-4-(1-hydroxycyclobutyl)phenyl]-1H-indole-3-carboxylic acid] | 6.9 | 73 | –
CC(=O)N1CCC(c2ccc(-c3cc4c(C(=O)O)c[nH]c4cc3Cl)cc2)C1 (stereo not drawn) [Example 15, 5-[4-(1-acetylpyrrolidin-3-yl)phenyl]-6-chloro-1H-indole-3-carboxylic acid] | 632 | 92 | –
